# Data: patent US20260199350A1, “FLAVONES, QUINOLINONES, QUINAZOLINONES, AND AURONES, AND USES IN CK2-MEDIATED DISEASES” (Salk Institute for Biological Studies, priority 2022, published 2026)
# Like-named read-outs stand apart in the source and are kept apart here.
# What was measured:
# IL-6 secretion = IL-6 secretion assay in astrocytes (Promega Lumit IL-6 kit); type: cell-based, human; conditions: Homo sapiens, Astrocyte; astrocytes stimulated with IL1-β, after 5 hours; read-out: IC50, secretion of IL-6
# Description: IL-6 secretion assay. HCAs were plated at 20,000 cells per well in white clear bottom 96-well plates. Two to three days later, media was removed and replaced with media containing 10 ng/mL IL1B and compound dilution series. Five hours later, plates were processed using the Lumit IL-6 Assay Kit (Promega W6030) according to the manufacturer's instructions.
# • ^1Radiometric kinase assay from Eurofins. Performed in astrocytes with a Promega Lumit IL-6 kit. A series of halogenated flavones was generated and assayed (Table 3).
# CK2A1 = target: T1, CK2A1 (Homo sapiens, UniProt P68400); assay: Radiometric kinase assay (Eurofins), CK2A1; type: biochemical; conditions: read-out: CK2A1 RAD IC50
# T1 construct: purchased Eurofins
# Description: FIGS. 4A-4F characterize flavones for in vitro and in-cell CK2 inhibition. […] Representative of two independent experiments. […] Nonlinear fit was used to calculate IC50. […] Nonlinear fit was used to calculate IC50. […] Nonlinear fit was used to calculate IC50. […] Normalized to DMSO, data are representative of three independent experiments.
# (§1) • ^1Radiometric kinase assay from Eurofins. Performed in astrocytes with a Promega Lumit IL-6 kit.
# CK2A2 = target: T2, CK2A2 (Homo sapiens, UniProt P19784); assay: Radiometric kinase assay (Eurofins), CK2A2; type: biochemical; conditions: read-out: CK2A2 RAD IC50
# T2 construct: purchased Eurofins
# Description: as §1
# T2 sequence (P19784 whole entry): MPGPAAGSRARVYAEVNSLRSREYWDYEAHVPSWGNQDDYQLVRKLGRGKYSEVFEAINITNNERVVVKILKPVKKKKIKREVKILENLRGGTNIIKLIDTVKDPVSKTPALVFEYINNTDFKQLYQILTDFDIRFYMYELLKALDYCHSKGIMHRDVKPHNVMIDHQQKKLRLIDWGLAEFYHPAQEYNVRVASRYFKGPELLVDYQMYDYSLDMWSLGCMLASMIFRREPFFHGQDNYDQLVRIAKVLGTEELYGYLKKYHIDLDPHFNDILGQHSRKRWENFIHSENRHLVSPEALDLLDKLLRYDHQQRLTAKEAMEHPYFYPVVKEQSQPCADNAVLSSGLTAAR
# T1 sequence (P68400 whole entry): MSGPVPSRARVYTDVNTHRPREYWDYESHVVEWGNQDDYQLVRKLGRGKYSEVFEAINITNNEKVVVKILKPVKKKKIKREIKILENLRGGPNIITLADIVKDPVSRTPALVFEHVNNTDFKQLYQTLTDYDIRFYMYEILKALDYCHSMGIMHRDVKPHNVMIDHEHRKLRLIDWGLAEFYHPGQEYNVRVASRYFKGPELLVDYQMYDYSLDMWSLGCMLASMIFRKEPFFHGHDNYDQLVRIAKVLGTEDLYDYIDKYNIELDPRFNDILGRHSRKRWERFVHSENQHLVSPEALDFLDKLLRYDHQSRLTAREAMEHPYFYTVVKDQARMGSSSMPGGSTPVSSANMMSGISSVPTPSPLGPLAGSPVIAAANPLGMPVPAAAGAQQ
Structure (SMILES),IC50 (CK2A1; Table 5) [µM],IC50 (CK2A2; Table 5) [µM],IC50 (CK2A1; Table 12) [µM],IC50 (CK2A2; Table 12) [µM],further results
"O=C(O)c1ccc2c(c1)nc(Nc1cccc(Cl)c1)c1ccncc12 [CX-4945, silmitasertib, reference compound]",–,–,–,–,IC50 (IL-6 secretion): 0.315 µM
O=c1[nH]c(-c2ccc(O)c(Cl)n2)nc2c(Cl)cc(Cl)cc12 [Compound 963A],–,–,–,–,IC50 (CK2A1; Table 9): 0.176 µM; IC50 (CK2A2; Table 9): 0.062 µM
O=c1[nH]c(-c2ccc(O)c(Cl)n2)nc2c(Br)cccc12 [Compound 964A],–,–,–,–,IC50 (CK2A1; Table 9): 0.155 µM; IC50 (CK2A2; Table 9): 0.137 µM
O=c1cc(-c2ccc(O)c(O)c2)oc2c(Br)cc(Br)cc12 [Compound 1004A],0.845,0.803,–,–,–
O=c1[nH]c(-c2cc(Br)c(O)cn2)nc2c(Br)cc(Br)cc12 [Compound 1005A],–,–,–,–,IC50 (CK2A1; Table 9): 0.094 µM; IC50 (CK2A2; Table 9): 0.053 µM
O=c1[nH]c(-c2cc(Br)c(O)cn2)nc2c(Cl)cc(Cl)cc12 [Compound 1006A],–,–,–,–,IC50 (CK2A1; Table 9): 0.182 µM; IC50 (CK2A2; Table 9): 0.085 µM
O=c1[nH]c(-c2cc(Br)c(O)cn2)nc2c(Br)cccc12 [Compound 1007A],–,–,–,–,IC50 (CK2A1; Table 9): 0.38 µM; IC50 (CK2A2; Table 9): 0.327 µM
COc1cc(-c2cc(=O)c3cc(Br)c(OC)c(Br)c3o2)ncc1O [Compound 1040A],0.052,0.029,–,–,–
COc1cc(-c2cc(=O)c3cc(Br)c(OC)cc3o2)ncc1O [Compound 1063B],0.203,0.445,–,–,–
COc1cc(-c2cc(=O)c3cc(Br)ccc3o2)ncc1O [Compound 1065A],0.401,0.364,–,–,–
O=c1cc(-c2cc(Br)c(O)cn2)[nH]c2c(Br)cc(Br)cc12 [Compound 1066A],–,–,–,–,IC50 (CK2A1; Table 7): 2.7 µM; IC50 (CK2A2; Table 7): 1.29 µM
COc1cc(-c2cc(=O)c3cc(Br)cc(Br)c3[nH]2)ncc1O [Compound 1077A],–,–,–,–,IC50 (CK2A1; Table 7): > 5 µM; IC50 (CK2A2; Table 7): > 5 µM
O=c1cc(-c2ccc(O)c(C(F)(F)F)c2)[nH]c2c(Br)cc(Br)cc12 [Compound 1095B],–,–,–,–,IC50 (CK2A1; Table 7): 0.488 µM; IC50 (CK2A2; Table 7): 0.699 µM
O=c1cc(-c2ccc(O)c(Cl)c2)[nH]c2c(Br)cc(Br)cc12 [Compound 1103A],–,–,–,–,IC50 (CK2A1; Table 7): 0.141 µM; IC50 (CK2A2; Table 7): 0.071 µM
O=C1/C(=C/c2ccc(O)c(C3CC3)c2)Oc2c(Br)cc(Br)cc21 [Compound 1131A],–,–,> 5,> 5,–
O=c1cc(-c2ccc(O)c(C3CC3)c2)oc2c(Br)cc(Br)cc12 [Compound 1132A],> 5,> 5,–,–,–
COc1c(Br)cc2c(c1Br)O/C(=C\c1ccc(O)c(C3CC3)c1)C2=O [Compound 1134A],–,–,> 5,> 5,–
COc1ccc2c(c1Br)O/C(=C\c1ccc(O)c(C3CC3)c1)C2=O [Compound 1135B],–,–,> 5,> 5,–
COc1c(Br)cc2c(=O)cc(-c3ccc(O)c(C4CC4)c3)oc2c1Br [Compound 1140A],> 5,> 5,–,–,–
O=c1cc(-c2ccc(O)c(C3CC3)c2)oc2c(Br)cccc12 [Compound 1141A],> 5,4.25,–,–,–
COc1ccc2c(=O)cc(-c3ccc(O)c(C4CC4)c3)oc2c1Br [Compound 1142A],2.79,2.23,–,–,–
O=C1/C(=C/c2ccc(O)cn2)Oc2c(Br)cc(Br)cc21 [Compound 1143A],–,–,> 5,> 5,–
COc1nc(/C=C2\Oc3c(cc(Br)c(OC)c3Br)C2=O)ccc1O [Compound 1159A],–,–,1.02,0.59,–
COc1cc(/C=C2\Oc3c(Br)cc(Br)cc3C2=O)ncc1O [Compound 1163A],–,–,0.045,0.403,–
COc1cc(/C=C2\Oc3c(cc(Br)c(OC)c3Br)C2=O)ncc1O [Compound 1164A],–,–,0.12,0.331,–
O=C1/C(=C/c2cc(Br)c(O)cn2)Oc2c(Br)cc(Br)cc21 [Compound 1173A],–,–,0.06,0.03,–
COc1c(Br)cc2c(c1Br)O/C(=C\c1cc(Br)c(O)cn1)C2=O [Compound 1174A],–,–,0.086,0.027,–

# Continued, in another order:
IC50 (CK2A1; Table 5) [µM],IC50 (CK2A2; Table 5) [µM],IC50 (CK2A1; Table 12) [µM],IC50 (CK2A2; Table 12) [µM],Structure (SMILES),further results
1.89,1.74,–,–,COc1nc(-c2cc(=O)c3cc(Br)c(OC)c(Br)c3o2)ccc1O [Compound 1041A],–
2.73,1.18,–,–,COc1cc2oc(-c3ccc(O)c(OC)n3)cc(=O)c2cc1Br [Compound 1058A],–
0.185,0.251,–,–,COc1ccc2c(=O)cc(-c3ccc(O)c(OC)n3)oc2c1Br [Compound 1059A],–
0.124,0.167,–,–,COc1nc(-c2cc(=O)c3cc(Br)ccc3o2)ccc1O [Compound 1064A],–
–,–,0.178,0.109,COc1nc(/C=C2\Oc3c(Br)cc(Br)cc3C2=O)ccc1O [Compound 1150A],–
